Test systems include MDA-MB-231 breast; HL-60(TB) leukemia; SK-OV-3 ovarian; EKVX NSCLC; HT29 colon; KM12 colon; SN12C renal; HCT-15 colon; NCI-H23 lung; OVCAR-3 ovarian.
What all share (assay): inhibition of tumour cell growth, NCI panel, 48 h

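1) Cells in 96-well plates. 2) Compound, 48 h, 5 concentrations. 3) Linear interpolation between surrounding doses. 4) Unreached endpoint = highest concentration. Here, GI50 denotes the concentration required for 50% inhibition of growth. Definition used: TGI = concentration required for complete inhibition of growth.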

On to `C#CCn1cc(C=C2C(=O)NC(=S)NC2=O)c2cc(Cl)ccc21`, for which the GI50 was 1.81 µM in the test with MDA-MB-231 breast; 2.24 µM in the test with HL-60(TB) leukemia; 2.87 µM in the test on SK-OV-3 ovarian; 2.14 µM in the test on EKVX NSCLC; 2.21 µM in the test on HT29 colon; 1.62 µM with KM12 colon. The GI50 was 2.05 µM with SN12C renal, 1.98 µM in the test with HCT-15 colon, 2.18 µM with NCI-H23 lung and 1.64 µM in the test with OVCAR-3 ovarian. The TGI came to 3.62 µM in the test with MDA-MB-231 breast; 6.45 µM in the test with HL-60(TB) leukemia; 14.7 µM in the test on SK-OV-3 ovarian; 5.92 µM in the test with EKVX NSCLC; 4.68 µM with HT29 colon; 3.33 µM in the test with KM12 colon. The TGI with SN12C renal was 4.49 µM; in the test with HCT-15 colon, 4.64 µM; in the test on NCI-H23 lung, 5.26 µM; with OVCAR-3 ovarian it was 3 µM.
Consider `CC(C)(C)OC(=O)n1c(Cl)c(C(=O)N=C=S)c2ccccc21`, for which the GI50 in the test with MDA-MB-231 breast is 15.7 µM; with HL-60(TB) leukemia it was 24.4 µM; with SK-OV-3 ovarian, above 100 µM; with EKVX NSCLC it was 29.6 µM; with HT29 colon it was above 100 µM; in the test with KM12 colon, 18.4 µM. In addition, the GI50 in the test with SN12C renal was 67.1 µM; in the test on HCT-15 colon, 30 µM; with NCI-H23 lung it was 28.4 µM; with OVCAR-3 ovarian it was 25.6 µM. Besides, the TGI in the test with MDA-MB-231 breast was 46 µM; in the test on HL-60(TB) leukemia, above 100 µM; with SK-OV-3 ovarian, above 100 µM; in the test on EKVX NSCLC, 98.7 µM; in the test with HT29 colon, above 100 µM; in the test on KM12 colon, 52 µM. The TGI with SN12C renal is above 100 µM; in the test on HCT-15 colon, above 100 µM; in the test on NCI-H23 lung, above 100 µM; in the test with OVCAR-3 ovarian, 72.9 µM.
Regarding `COc1ccc(-c2cn(-c3cc(OC)c(OC)c(OC)c3)c(=O)n2-c2ccccc2)cc1`, the GI50 was above 100 µM in the test with MDA-MB-231 breast; 28.1 µM with HL-60(TB) leukemia; above 100 µM in the test with SK-OV-3 ovarian; above 100 µM in the test with EKVX NSCLC; 60.6 µM with HT29 colon; above 100 µM with KM12 colon. In addition, the GI50 in the test with SN12C renal is 84.3 µM; with HCT-15 colon, 52.6 µM; with NCI-H23 lung it was above 100 µM; in the test on OVCAR-3 ovarian, 43.1 µM. The TGI with MDA-MB-231 breast, with HL-60(TB) leukemia, with SK-OV-3 ovarian, in the test on EKVX NSCLC, in the test on HT29 colon and in the test with KM12 colon was above 100 µM throughout. For the same molecule, the TGI in the test with SN12C renal, with HCT-15 colon, in the test with NCI-H23 lung and in the test on OVCAR-3 ovarian was above 100 µM each time.
Regarding `NCCn1c2c(c3ccccc3c1=O)C(=O)c1ccccc1-2`, the GI50 was 0.431 µM with MDA-MB-231 breast; 0.162 µM in the test on HL-60(TB) leukemia; 0.528 µM in the test with SK-OV-3 ovarian; 1.48 µM in the test with EKVX NSCLC; 0.401 µM in the test with HT29 colon; 0.325 µM in the test with KM12 colon. Also, the GI50 was 0.266 µM in the test on SN12C renal, 0.271 µM in the test on HCT-15 colon, 0.237 µM in the test with NCI-H23 lung and 0.681 µM in the test with OVCAR-3 ovarian. The TGI with MDA-MB-231 breast was determined as 1.49 µM; in the test with HL-60(TB) leukemia, 0.611 µM; with SK-OV-3 ovarian it was 2.55 µM; with EKVX NSCLC, 4.48 µM; with HT29 colon, 5.22 µM; with KM12 colon it was 2.38 µM. Besides, the TGI in the test on SN12C renal worked out at 2.13 µM; with HCT-15 colon, 2.32 µM; in the test on NCI-H23 lung, 1.86 µM; in the test with OVCAR-3 ovarian it was 2.53 µM.
As for `O=C(Nc1nc2ccc(F)cc2s1)c1cccnc1Nc1ccc(Cl)cc1Cl`, the GI50 was 3.11 µM with MDA-MB-231 breast; 2 µM with HL-60(TB) leukemia; 2.26 µM with SK-OV-3 ovarian; 2.02 µM in the test with EKVX NSCLC; 2.05 µM in the test on HT29 colon; 2.78 µM with KM12 colon. Also, the GI50 in the test with SN12C renal is 2.65 µM; in the test with HCT-15 colon it was 3.35 µM; with NCI-H23 lung, 2.28 µM; with OVCAR-3 ovarian, 2.18 µM. The TGI in the test with MDA-MB-231 breast is 14.4 µM; with HL-60(TB) leukemia, 5.7 µM; with SK-OV-3 ovarian, 7.38 µM; in the test on EKVX NSCLC it was 16 µM; in the test on HT29 colon it was 9.75 µM; in the test on KM12 colon, 9.54 µM. The TGI with SN12C renal came to 13.7 µM; in the test on HCT-15 colon, 20.3 µM; in the test on NCI-H23 lung, 9.56 µM; in the test on OVCAR-3 ovarian, 7.1 µM.
As to `COc1cc(/C=C2\C(=O)Nc3ccc(Br)cc32)cc(OC)c1OC`, the GI50 in the test with MDA-MB-231 breast was 7.68 µM; with HL-60(TB) leukemia it was 4.36 µM; in the test on SK-OV-3 ovarian, 24 µM; in the test on EKVX NSCLC, 14.3 µM; with HT29 colon, 3.82 µM; in the test with KM12 colon it was 3.33 µM. Further, the GI50 in the test on SN12C renal was above 93.8 µM; with HCT-15 colon, 3.37 µM; with NCI-H23 lung it was 8.07 µM; with OVCAR-3 ovarian, 5.59 µM. Further, the TGI in the test with MDA-MB-231 breast was above 52.9 µM; in the test with HL-60(TB) leukemia, above 100 µM; in the test on SK-OV-3 ovarian, above 56.1 µM; with EKVX NSCLC, above 100 µM; in the test with HT29 colon it was above 100 µM; in the test with KM12 colon it was above 92.4 µM. Also, the TGI in the test on SN12C renal was above 100 µM; with HCT-15 colon it was above 100 µM; in the test on NCI-H23 lung it was 66 µM; in the test on OVCAR-3 ovarian, above 56.9 µM.
As for `Fc1ccc(-c2cc(-c3cn[nH]c3-c3ccccn3)ccn2)cc1`, the GI50 in the test on MDA-MB-231 breast, in the test with HL-60(TB) leukemia, in the test with SK-OV-3 ovarian, in the test with EKVX NSCLC, in the test on HT29 colon and in the test with KM12 colon was above 25 µM throughout. Further, the GI50 in the test on SN12C renal is above 25 µM; in the test with HCT-15 colon it was above 25 µM; with NCI-H23 lung, above 12.8 µM; in the test on OVCAR-3 ovarian, above 25 µM. Moreover, the TGI in the test with MDA-MB-231 breast, in the test on HL-60(TB) leukemia, with SK-OV-3 ovarian, with EKVX NSCLC, in the test with HT29 colon and in the test on KM12 colon was above 25 µM each time. The TGI in the test with SN12C renal, in the test on HCT-15 colon, with NCI-H23 lung and in the test with OVCAR-3 ovarian was above 25 µM in each case.

For the origin of these results see PubChem BioAssay (NCI).
